Source: US5659055A, “Cytoprotective fatty moiety compounds” (Virginia Commonwealth University, priority 1995, dated 1997)

Test system: PLA2 derived from plasma, sperm, platelets, human synovial fluid and N. naja cobra venom
Assay: In vitro inhibition of PLA2 from a variety of sources (FIG. 8)
Format: biochemical

## CCCCCCC(C/C=C\CCCCCCCC(=O)O)OC(=O)CCCCCCCCC(=O)O (stereo not shown) [RISE-1, Ricinoleic Acid--Sebacyl Ester]
  in vitro inhibition of PLA2 from different sources: dose related, selective in vitro inhibition
